Consider 22 molecules from ChEMBL document CHEMBL5325424, “Structural design, synthesis, and anti-Trypanosomatidae profile of new Pyridyl-thiazolidinones” (Eur J Med Chem, 2023).

The nature of series [1]: Cytotoxicity against mouse RAW264.7 cells incubated for 48 hrs by MTT assay. The format is toxicity, cell-based. Background: Tetrazolium dyes change colour on reduction, which living cells bring about.
The subject of series [2] is Leishmania amazonensis. Put plainly: Antileishmanial activity against Leishmania amazonensis WHOM/00 LTB 0016 amastigotes infected in mouse RAW264.7 cells assessed as parasite growth inhibition incubated for 24 hrs by panoptic staining based assay. The format is functional, organism-based. Conditions: WHOM/00 LTB 0016, RAW264.7, 24 h.
Series [3] can be described thus: Selectivity index, ratio of CC50 for mouse RAW264.7 cells to IC50 for Leishmania amazonensis WHOM/00 LTB 0016 promastigotes. Conditions: read-out: Ratio CC50/IC50. The format is toxicity.
Series [4] relates to Trypanosoma cruzi. The experiment in a line: Antitrypanosomal activity against Trypanosoma cruzi Y trypomastigotes infected in African green monkey Vero cells assessed as parasite growth inhibition incubated for 24 hrs by hemocytometry. The format is functional, organism-based.
Series [5] concerns Leishmania amazonensis. Put plainly: Antileishmanial activity against Leishmania amazonensis WHOM/00 LTB 0016 promastigotes assessed as parasite growth inhibition incubated for 72 hrs. The format is functional, organism-based. Conditions: WHOM/00 LTB 0016, 72 h.
Series [6] is described as follows: Selectivity index, ratio of CC50 for mouse RAW264.7 cells to IC50 for Trypanosoma cruzi Tulahuen amastigotes infected in mouse L929 cells. The format is toxicity, cell-based. The conditions noted are these: read-out: Ratio CC50/IC50.
Series [7] concerns Trypanosoma cruzi. Put plainly: Antitrypanosomal activity against Trypanosoma cruzi Tulahuen amastigotes infected in mouse L929 cells assessed as parasite growth inhibition measured after 7 days by CPRG/Nonidet based assay. The conditions noted are these: L929, 168 h. The format is functional, organism-based.
Series [8] can be described thus: Selectivity index, ratio of CC50 for mouse RAW264.7 cells to IC50 for Trypanosoma cruzi Y trypomastigotes infected in African green monkey Vero cells. The conditions noted are these: read-out: Ratio CC50/IC50. The format is toxicity.
Series [9] can be described thus: Selectivity index, ratio of CC50 for mouse RAW264.7 cells to IC50 for Leishmania amazonensis WHOM/00 LTB 0016 amastigotes infected in mouse RAW264.7 cells. The format is toxicity, cell-based. The conditions noted are these: read-out: Ratio CC50/IC50.

pIC50: −log10 of the molar value.

The term CC50 denotes the concentration giving 50% cytotoxicity. The pIC50 is the negative decadic logarithm of the IC50, by convention in mol/L. In the case of `N/C(S)=N/N=C/c1ccccn1`, the midpoint of cytotoxicity in [1], the CC50 at 48 h, lay at 8.65 µM. Moreover, the pIC50 is 3.26 in the series on Leishmania amazonensis [2], 4.00 with Trypanosoma cruzi [4], 4.80 in the series with Leishmania amazonensis [5] and 5.80 in the series with Trypanosoma cruzi [7]. Also, the selectivity ratio in series [3] amounted to 0.54; in [6], 5.37; in series [8], 0.08; in series [9] it was 0.01.

In series [1], `O=C1CS/C(=N/N=C/c2ccccn2)N1c1ccccc1` returned a CC50 at 48 h of 61.9 µM. For the same molecule, the pIC50 in the series with Leishmania amazonensis [2] is 3.47; with Trypanosoma cruzi [4] it was 4.15; in the series with Leishmania amazonensis [5], 3.17; with Trypanosoma cruzi [7] it was 5.42. In addition, the selectivity ratio in series [3] worked out at 0.1; in series [6], 16.2; in series [8], 0.9; in series [9], 0.18.

Regarding `O=C1CS/C(=N/N=C/c2ccccn2)N1`, the midpoint of cytotoxicity in series [1], the CC50 at 48 h, lay at 486 µM. For the same molecule, the pIC50 was 4.20 in the series on Leishmania amazonensis [2], 4.95 with Trypanosoma cruzi [4], 4.09 in the series with Leishmania amazonensis [5] and 5.09 in the series with Trypanosoma cruzi [7]. The selectivity ratio is 6 in [3], 59.3 in [6], 42.6 in series [8] and 7.74 in [9].

Regarding `C/C(=N\N=C1/SCC(=O)N1C)c1ccncc1`, it took 426 µM to reach half-maximal cytotoxicity in series [1] (CC50 at 48 h). Besides, the pIC50 in the series with Leishmania amazonensis [2] was 3.39; with Trypanosoma cruzi [4] it was 3.40; in the series with Leishmania amazonensis [5], 3.09; in the series with Trypanosoma cruzi [7], 5.12. The selectivity ratio in [3] came to 0.5; in [6] it was 56.2; in [8], 1.1; in series [9] it was 1.05.

For `C/C(=N\N=C1/NC(=O)CS1)c1ccncc1`, the CC50 at 48 h in series [1] amounted to 276 µM. The pIC50 is 3.37 in the series on Leishmania amazonensis [2], 3.73 with Trypanosoma cruzi [4], 3.07 in the series on Leishmania amazonensis [5] and 5.20 in the series on Trypanosoma cruzi [7]. Besides, the selectivity ratio was determined as 0.3 in series [3], 43.8 in series [6], 1.5 in series [8] and 0.64 in series [9].

`CC(C)C1S/C(=N/N=C/c2ccccn2)NC1=O` (configuration not stated) gave a CC50 at 48 h in [1] of 256 µM. Further, the pIC50 with Leishmania amazonensis [2] is 5.06; with Trypanosoma cruzi [4] it was 4.36; in the series with Leishmania amazonensis [5], 4.39; in the series on Trypanosoma cruzi [7], 6.08. The selectivity ratio turned out to be 6.4 in series [3], 305 in [6], 5.8 in series [8] and 29.2 in series [9].

With `CN1C(=O)C(C)(C)S/C1=N/N=C/c1ccccn1`, the CC50 at 48 h in series [1] was 387 µM. Moreover, the pIC50 with Leishmania amazonensis [2] was 3.42; in the series with Trypanosoma cruzi [4], 4.27; in the series on Leishmania amazonensis [5] it was 4.42; with Trypanosoma cruzi [7], 6.09. The selectivity ratio in series [3] is 10.1; in [6] it was 477; in series [8], 7.2; in series [9] it was 1.01.

`C/C(=N\NC(=S)Nc1ccccc1)c1ccncc1`: the CC50 at 48 h in [1] is 740 µM. Besides, the pIC50 in the series on Leishmania amazonensis [2] was 3.43; in the series with Trypanosoma cruzi [4], 5.90; with Leishmania amazonensis [5], 4.38; in the series with Trypanosoma cruzi [7] it was 5.54. Also, the selectivity ratio turned out to be 17.9 in [3], 256 in series [6], 583 in series [8] and 2 in [9].

In series [1], `CC1(C)S/C(=N/N=C/c2ccccn2)NC1=O` gave a CC50 at 48 h of 449 µM. Moreover, the pIC50 with Leishmania amazonensis [2] is 3.39; in the series with Trypanosoma cruzi [4], 4.05; in the series on Leishmania amazonensis [5] it was 3.91; with Trypanosoma cruzi [7], 5.79. Moreover, the selectivity ratio was 3.7 in series [3], 279 in series [6], 5 in series [8] and 1.11 in series [9].

As for `CNC(=S)N/N=C(\C)c1ccccn1`, in series [1], the CC50 at 48 h came to 7.49 µM. Also, the pIC50 with Leishmania amazonensis [2] is 4.57; with Trypanosoma cruzi [4] it was 4.07; in the series with Leishmania amazonensis [5] it was 4.16; in the series on Trypanosoma cruzi [7], 6.12. The selectivity ratio was found to be 0.1 in series [3], 9.75 in series [6], 0.08 in series [8] and 0.27 in [9].

In series [1], `CN1C(=O)CS/C1=N/N=C/c1ccccn1` had a CC50 at 48 h of 274 µM. Besides, the pIC50 with Leishmania amazonensis [2] was 3.37; in the series with Trypanosoma cruzi [4], 3.37; in the series on Leishmania amazonensis [5], 3.07; with Trypanosoma cruzi [7], 5.24. The selectivity ratio in series [3] was 0.3; in series [6] it was 47.1; in series [8], 0.6; in [9], 0.64.

Take `C/C(=N\N=C1/SCC(=O)N1c1ccccc1)c1ccncc1`: half-maximal cytotoxicity in series [1] (CC50 at 48 h) was put at 155 µM. Also, the pIC50 is 3.49 with Leishmania amazonensis [2], 3.49 with Trypanosoma cruzi [4], 3.19 with Leishmania amazonensis [5] and 6.21 in the series with Trypanosoma cruzi [7]. Also, the selectivity ratio in series [3] is 0.2; in series [6], 250; in series [8] it was 0.5; in series [9], 0.48.

In the case of `CNC(=S)N/N=C/c1ccccn1`, in series [1], the CC50 at 48 h worked out at 55.1 µM. The pIC50 in the series with Leishmania amazonensis [2] is 3.29; in the series with Trypanosoma cruzi [4] it was 5.69; in the series with Leishmania amazonensis [5], 4.86; with Trypanosoma cruzi [7] it was 5.25. Moreover, the selectivity ratio in series [3] was determined as 3.97; in series [6], 9.72; in series [8] it was 27; in [9] it was 0.1.

Take `C/C(=N\N=C1\SC(C(C)C)C(=O)N1c1ccccc1)c1ccncc1` (configuration not stated): it took 296 µM to reach half-maximal cytotoxicity in [1] (CC50 at 48 h). The pIC50 with Leishmania amazonensis [2] was 5.24; with Trypanosoma cruzi [4], 5.82; in the series with Leishmania amazonensis [5] it was 4.65; with Trypanosoma cruzi [7], 6.05. In addition, the selectivity ratio in series [3] was found to be 13.2; in series [6], 332; in [8] it was 197; in series [9], 51.9.

In [1], `C/C(=N\NC(N)=S)c1ccncc1` displayed a CC50 at 48 h of 464 µM. In addition, the pIC50 in the series with Leishmania amazonensis [2] was 3.29; in the series on Trypanosoma cruzi [4] it was 3.77; in the series with Leishmania amazonensis [5], 3.98; in the series with Trypanosoma cruzi [7], 3.62. The selectivity ratio in series [3] was 4.5; in [6], 1.91; in [8], 2.76; in series [9], 0.9.

Take `C/C(=N\NC(N)=S)c1ccccn1`: the CC50 at 48 h in series [1] was found to be 16.1 µM. Also, the pIC50 is 3.29 in the series with Leishmania amazonensis [2], 3.86 with Trypanosoma cruzi [4], 4.70 in the series on Leishmania amazonensis [5] and 5.86 with Trypanosoma cruzi [7]. Further, the selectivity ratio in [3] worked out at 0.8; in series [6], 11.6; in [8] it was 0.11; in series [9] it was 0.03.

Take `C/C(=N\NC(=S)Nc1ccccc1)c1ccccn1`: it took 5.77 µM to reach half-maximal cytotoxicity in series [1] (CC50 at 48 h). Moreover, the pIC50 with Leishmania amazonensis [2] is 4.07; in the series on Trypanosoma cruzi [4], 5.24; with Leishmania amazonensis [5] it was 4.38; with Trypanosoma cruzi [7], 7.15. For the same molecule, the selectivity ratio in series [3] came to 0.13; in [6], 82.4; in [8], 1; in series [9], 0.06.

In [1], `C/C(=N\N=C1/NC(=O)C(C(C)C)S1)c1ccncc1` (configuration not stated) showed a CC50 at 48 h of 179 µM. Also, the pIC50 in the series on Leishmania amazonensis [2] is 4.14; in the series on Trypanosoma cruzi [4], 3.44; in the series with Leishmania amazonensis [5] it was 3.14; in the series with Trypanosoma cruzi [7], 4.14. In addition, the selectivity ratio in series [3] was 0.2; in series [6], 2.46; in series [8] it was 0.5; in series [9], 2.46.

In [1], `CNC(=S)N/N=C(\C)c1ccncc1` displayed a CC50 at 48 h of 567 µM. Also, the pIC50 in the series on Leishmania amazonensis [2] was 3.32; with Trypanosoma cruzi [4], 4.29; in the series with Leishmania amazonensis [5] it was 3.63; in the series with Trypanosoma cruzi [7], 3.63. Moreover, the selectivity ratio in series [3] stood at 2.43; in series [6] it was 2.4; in [8], 11.1; in [9], 1.18.

As for `C/C(=N\N=C1\SC(C(C)C)C(=O)N1C)c1ccncc1` (configuration not stated), in series [1], the CC50 at 48 h turned out to be 356 µM. Also, the pIC50 with Leishmania amazonensis [2] is 4.16; with Trypanosoma cruzi [4], 3.46; in the series on Leishmania amazonensis [5], 3.16; in the series on Trypanosoma cruzi [7] it was 4.16. Also, the selectivity ratio in series [3] was 0.5; in [6] it was 5.17; in series [8] it was 1; in [9] it was 5.17.

Regarding `C/C(=N\N=C1/SCC(=O)N1c1ccccc1)c1ccccn1`, in [1], it took 223 µM to reach half-maximal cytotoxicity (CC50 at 48 h). Besides, the pIC50 is 3.49 in the series on Leishmania amazonensis [2], 5.38 with Trypanosoma cruzi [4], 3.59 with Leishmania amazonensis [5] and 5.06 in the series with Trypanosoma cruzi [7]. Besides, the selectivity ratio in [3] amounted to 0.9; in [6], 25.5; in series [8], 53.2; in series [9], 0.69.

The molecule `CC(C)C1S/C(=N/N=C/c2ccccn2)N(C)C1=O` (configuration not stated) came in with a CC50 at 48 h in [1] of 267 µM. In addition, the pIC50 was 4.73 in the series on Leishmania amazonensis [2], 4.96 in the series on Trypanosoma cruzi [4], 4.69 in the series with Leishmania amazonensis [5] and 6.12 in the series on Trypanosoma cruzi [7]. In addition, the values for the selectivity ratio in [3], in [6] and in series [9] were 13.2, 355 and 14.3, respectively.
